This is an account of results in US7429291B2, “Print ink containing a plurality of fluorescent coloring materials and inkjet recording method” (Canon Kabushiki Kaisha, priority 2003, dated 2008).

Data set [1] in a line: Light absorption spectrum of coloring material. Type of data set: physicochemical. The procedure:
Next, the present invention will be described more concretely with reference to the examples and the reference examples. Here, measured values obtained with pure-water diluents of coloring materials were used for an absorption wavelength region, a maximum absorption wavelength region, and a fluorescence wavelength region. Using an absorption spectrometer, absorption wavelengths were measured.
A diluent was prepared such that the absorbance thereof was in the range of 0.5 to 0.7. A higher region from a base line as an absorption peak of the coloring material was defined as an absorption wavelength region, and the peak value was defined as a maximum absorption wavelength region. In addition, for fluorescence wavelengths, the measurement conditions were defined such that the fluorescence intensities would not exceed the measurement threshold value. Then, the measurement of fluorescence wavelengths was performed by using the diluent used in the measurement of absorbance and by fixing the excitation wavelengths of the first and second coloring materials at predetermined wavelengths. A region higher than the base line was defined as a fluorescence emission wavelength region.
The absorption wavelength regions of the first and second coloring materials were measured using the spectrophotometer U-3200, manufactured by Hitachi Ltd., after the sample was diluted with pure water 100,000 fold. The absorption wavelength region of the first coloring material ranged from 450 to 620 nm both inclusive, and the maximum absorption wavelength thereof was 565 nm. In addition, the absorption wavelength region of the second coloring material ranged from 300 to 450 nm both inclusive, and the maximum absorption wavelength thereof was 372 nm.

A short description of data set [2]: Fluorescence emission and excitation spectra of coloring material in evaporated ink (FP-750). The format is physicochemical. The conditions noted are these: excitation at 254 nm. The source says: Hereinafter, the print ink of the present invention will be described with reference to the drawings. Unless noted as a recorded image or a printed matter, the results are with an evaporated ink in which water was removed by evaporation and coloring materials are dispersed in an organic solvent. The print ink according to each embodiment of the present invention contains a first fluorescent coloring material that emits fluorescence of a predetermined wavelength that is used for measurement or determination, with excitation at a predetermined excitation wavelength, a second fluorescent coloring material that emits fluorescence with excitation at the same excitation wavelength, and a liquid medium for solving or dispersing these materials therein.
Aspect 1 is characterized in that the fluorescence emission wavelength region of the second fluorescent coloring material covers at least the peak wavelength range of the excitation spectrum of the first fluorescent coloring material measured for emission at 600 nm (see FIG. 2) and/or the absorption wavelengths in the visible region of the first fluorescent coloring material (see the bottom of FIG. 6). […] Therefore, in FIG. 2, when the predetermined fluorescence wavelength of AR52 is 600 nm (the predetermined excitation wavelength: 254 nm), the peak wavelength range thereof is from 430 nm to 600 nm both inclusive. […]

Where [3] appears, read: absorption spectrum of the figures, normal ink.

`O=C([O-])c1ccccc1-c1c2ccc(=O)cc-2oc2cc([O-])ccc12.[Na+].[Na+]` [AY73, C.I. Acid Yellow 73]: in data set [1] (setting [3]), the “absorption band in visible region” value was ≤ 525 nm and the “absorption peak wavelength in visible region” value was 490 nm. Moreover, the “fluorescence emission peak wavelength” value in data set [2] is 530 nm.

As for `CCN(CC)c1ccc2c(-c3ccc(S(=O)(=O)[O-])cc3S(=O)(=O)[O-])c3ccc(=[N+](CC)CC)cc-3oc2c1.[Na+]` [C.I. Acid Red 52], the maximum absorption wavelength in data set [1] (Example 1, diluted with pure water 100,000 fold, spectrophotometer U-3200) is recorded as 565 nm. Further, the “absorption peak wavelength in visible region” value in data set [1] (setting [3]) stood at 565 nm. Also, the “fluorescence emission peak wavelength” value in data set [2] was determined as 600 nm.
